Reference: patent US20060160869A1, “Ubiquitin ligase inhibitors” (Rigel Pharmaceuticals, Inc., priority 2005, published 2006)

Legend:
MDM2 = MDM2 (Homo sapiens, UniProt Q00987); experiment: Plate-based E3 ligase assay, MDM2 autoubiquitination (MDM2-FLAG); assay type: biochemical; details: Table 2; read-out: MDM2 IC50
Description: (§1) E3 (His-APC11/APC2—“APC”) auto-ubiquitination was measured as described in U.S. patent application Ser. No. 09/826,312 (Publication No. US-2002-0042083-A1), which is incorporated herein in its entirety. Details of the protocol are described below. Activity in the presence of the compound was determined relative to a parallel control in which only DMSO was added. Values of the IC50 were typically determined using 6 or 8 different concentrations of the compound, although as few as 2 concentrations may be used to approximate the IC50 value.
(§2) Nickel-coated 96-well plates (Pierce 15242) were blocked for 1 hour with 100 μl of blocking buffer at room temperature. The plates were washed 4 times with 225 μl of 1×PBS and 80 μl of the reaction buffer were added that contained 100 ng/well of Flag-ubiquitin. To this, 10 μl of the test compound diluted in DMSO were added. After the test compound was added, 10 μl of E1 (human), E2 (Ubch5c), and APC in Protein Buffer was added to obtain a final concentration of 5 ng/well of E1, 20 ng/well: of E2 and 100 ng/well of APC. The plate were shaken for 10 minutes and incubated at room temperature for 1 hour. After incubation, the plates were washed 4 times with 225 μl of 1×PBS and 100 μl/well of Antibody Mix were added to each well. The plates were incubate at room temperature for another hour after which they were washed 4 times with 225 μl of 1×PBS and 100 μl/well of Lumino substrate were added to each well. The luminescence was measured by using a BMG luminescence microplate reader.
In similar manner, autoubiquitination of the E3 MDM2 was determined (MDM2-FLAG). Further instruction in such assays can be found in U.S. patent application Ser. No. 10/108,767 (Publication No. US-2003-0104474 A1), which is incorporated herein in its entirety.
hMDM2 Plate/Gel is Mouse double minute 2, human homolog. This protein belongs to the E3 RING finger ligase group.

[1] = system: p53 reporter system in p53 wild-type U2OS cell line; experiment: p53-dependent transcription reporter assay, U20SRE; assay type: cell-based; details: p53 +ve cell type; maximal fold induction over DMSO control
Excerpt: (§3) Stable lines of U2OS (osteosarcoma; Wild-type p53 positive), HCT116 (colorectal carcinoma; Wild-type p53 positive) and H1299 (lung non-small cell carcinoma; p53 null) carrying p53-dependent transcriptional regulatory element linked to a Luciferase reporter gene and H1299 carrying a 5′-regulatory region of GADD45 linked to Luciferase were used.
Day 1: Cells were re-plated into 96-well plates at suitable densities to make 50-60% confluence on Day 2. The plating densities are as follows: 7.5×10^3 cells/well (or 2.5×10^4 cells/cm^2) for U2OS; 1.5×10^4 cells/well (or 5.0×10^4 cells/cm^2) for HCT116; and 1.0×10^4 cells/well (or 3.3×10^4 cells/cm^2) for H1299.
(§4) Day 2: The compounds or control drugs were diluted in dimethyl sulfoxide (DMSO) and added to the wells to create 6-points/2-fold serial dilution (20, 10, 5, 2.5, 1.25, 0.625 and 0 μM) for each compound. The DMSO concentration was adjusted to 0.2% in all wells.
(§5) Day 3: Twenty to 24 hours after compound addition, cells were twice washed with PBS and lysed with Glo-lysis buffer (100 μl/well, Promega; Cat#E2661). Plates were subjected to gentle agitation on a table-top shaker for 5 minutes at room temperature. Fifty μl of lysate was transferred to an assay plate to test for luciferase activity and mixed with 2× assay buffer (Promega; Cat# E1483). The reaction mixture was left at room temperature for 2 minutes and then luminescence was measure by a luminometer (Victor™, 1420 Multilabel Counter, Wallac).
(§6) Data analysis was done on Excel software (Microsoft). Values in Table 4 represent maximal fold induction over negative control (DMSO only) and are the mean of at least duplicate experiments.
U20SRE is a p53 wild-type U2OS cell line containing p53 reporter system. If the compound acts against MDM2, p53 activity increases.

[2] = system: p53 reporter system in p53 wild-type A549 cell line; experiment: p53-dependent transcription reporter assay, A549RE; assay type: cell-based; details: p53 +ve cell type; maximal fold induction over DMSO control
Description: as §3, §4, §5, §6
A549RE is a p53 wild-type A549 cell line containing p53 reporter system. If the compound acts against MDM2, p53 activity increases.

[3] = target: E3 (His-APC11/APC2, "APC") (Homo sapiens, UniProt Q9NYG5+Q9UJX6); experiment: Plate-based E3 ligase assay (APC FLAG), auto-ubiquitination; assay type: biochemical; details: Table 2; read-out: APC IC50
Sequence of E3 (His-APC11/APC2, "APC") (Q9NYG5 whole entry): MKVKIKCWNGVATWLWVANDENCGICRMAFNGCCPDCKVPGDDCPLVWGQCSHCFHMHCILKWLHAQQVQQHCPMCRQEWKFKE
Sequence of E3 (His-APC11/APC2, "APC") (Q9UJX6 whole entry): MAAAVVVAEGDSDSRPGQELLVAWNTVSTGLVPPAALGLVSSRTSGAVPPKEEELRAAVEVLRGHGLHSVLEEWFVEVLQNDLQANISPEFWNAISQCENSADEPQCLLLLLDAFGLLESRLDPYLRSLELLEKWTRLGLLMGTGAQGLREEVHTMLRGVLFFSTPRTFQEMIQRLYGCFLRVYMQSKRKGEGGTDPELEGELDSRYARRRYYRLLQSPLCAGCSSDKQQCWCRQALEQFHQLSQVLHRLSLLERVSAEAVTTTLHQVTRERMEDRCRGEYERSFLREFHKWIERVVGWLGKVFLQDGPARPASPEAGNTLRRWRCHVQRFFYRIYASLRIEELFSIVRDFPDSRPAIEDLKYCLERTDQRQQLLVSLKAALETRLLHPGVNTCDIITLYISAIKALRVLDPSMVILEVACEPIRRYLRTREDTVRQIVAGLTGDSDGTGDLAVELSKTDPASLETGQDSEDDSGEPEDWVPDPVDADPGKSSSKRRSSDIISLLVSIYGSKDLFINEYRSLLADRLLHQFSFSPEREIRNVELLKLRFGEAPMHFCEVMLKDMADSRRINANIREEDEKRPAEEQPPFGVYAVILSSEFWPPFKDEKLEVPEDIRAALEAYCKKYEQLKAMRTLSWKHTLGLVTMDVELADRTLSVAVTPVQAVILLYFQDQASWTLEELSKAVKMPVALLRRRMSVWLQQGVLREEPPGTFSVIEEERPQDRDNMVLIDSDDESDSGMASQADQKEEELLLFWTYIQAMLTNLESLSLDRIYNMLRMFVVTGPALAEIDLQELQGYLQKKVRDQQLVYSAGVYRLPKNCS
Description: as §1, §2
APC Plate/gel is Anaphase Promoting Complex. This protein also belongs to E3 RING finger ligase group.

Sequence of MDM2 (Q00987 whole entry): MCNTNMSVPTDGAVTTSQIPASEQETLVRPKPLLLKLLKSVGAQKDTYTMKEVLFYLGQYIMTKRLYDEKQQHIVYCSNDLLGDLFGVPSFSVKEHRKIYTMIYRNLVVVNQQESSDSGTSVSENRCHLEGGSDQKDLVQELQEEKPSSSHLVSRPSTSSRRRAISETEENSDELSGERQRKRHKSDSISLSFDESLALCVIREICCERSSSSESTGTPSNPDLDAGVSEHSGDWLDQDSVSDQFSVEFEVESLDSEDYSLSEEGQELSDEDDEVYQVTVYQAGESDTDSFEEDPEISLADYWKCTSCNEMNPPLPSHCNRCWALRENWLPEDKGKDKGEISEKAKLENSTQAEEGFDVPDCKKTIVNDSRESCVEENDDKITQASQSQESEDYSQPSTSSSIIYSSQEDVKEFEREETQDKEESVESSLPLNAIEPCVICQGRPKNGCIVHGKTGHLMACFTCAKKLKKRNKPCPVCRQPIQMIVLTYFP

CC(C)N(CCN(Cc1ccc(C(=O)N2CCNCC2)cc1)c1nc(-c2cccc([N+](=O)[O-])c2)cs1)C(C)C [compound 233]
IC50 (MDM2): ≥ 20 µM | Fold Induction of p53 activity, U20SRE [1]: a (a means 2 or less) | Fold Induction of p53 activity, A549RE [2]: a (a means 2 or less) | IC50 [3]: ≥ 20 µM
